# Data: US20020091095A1, “Modulation of Fas and FasL expression” (priority 1999, published 2002)
# Legend:
# Fas [1] = test: Fas expression at the cell surface by flow cytometry, Jurkat cells; type: cell-based; details: Jurkat human leukemia T cells, 100 μg/ml sequence, 48 h, treated vs control cells
# Method: (§1) Cancer cells and PBMCs were seeded in 6 well flat-bottom microplates and were maintained at 37° C. in a 5% CO2 atmosphere. Unless stated otherwise, 2×10^5 cells/ml were incubated for 48 h with 0 μg/ml (control) or 100 μg/ml ([…]) (treated) of the sequences.
# (§2) Fas and FasL expression were measured by flow cytometry using anti-Fas FITC-conjugated monoclonal antibodies and anti-FasL PE-conjugated monoclonal antibodies in a FACScalibur Flow Cytometer (Becton Dickinson, San Jose, Calif., USA) using the CELLQuest program (Becton Dickinson).
# (§3) Results are expressed as percentage (%) increase in the expression of Fas and of FasL measured on treated cells compared to control cells.
# (§4) Jurkat human leukemia T cells are an atypical multi-drug resistant human suspension tumor cell model.
# FasL [2] = test: FasL expression at the cell surface by flow cytometry, Jurkat cells; type: cell-based; details: Jurkat human leukemia T cells, 100 μg/ml sequence, 48 h, treated vs control cells
# Method: as §1, §2, §3, §4
# Fas [3] = test: Fas expression at the cell surface by flow cytometry, PBMCs; type: cell-based, human; details: 100 μg/ml sequence, 48 h, treated vs control cells
# Method: (§5) Peripheral blood mononuclear cells (hereinafter, “PBMCs”) were isolated from human blood by Ficoll-Hypaque (Amersham Pharmacia Biotech, Baie d'Urfée, Québec, Canada) density gradient centrifugation.
# as §1, §2, §3
# FasL [4] = test: FasL expression at the cell surface by flow cytometry, PBMCs; type: cell-based, human; details: 100 μg/ml sequence, 48 h, treated vs control cells
# Method: as §5, §1, §2, §3
# Fas [5] = test: Fas expression at the cell surface by flow cytometry, T-24 cells; type: cell-based, human; details: T-24 bladder cancer cells, 100 μg/ml sequence, 48 h, treated vs control cells
# Method: as §1, §2, §3
# (§6) T-24 bladder cancer cells are a p53 mutated human cell line T-24 cells (1.0×10^5 cells/ml) were incubated with the 6 base sequences shown in Table 4.
# FasL [6] = test: FasL expression at the cell surface by flow cytometry, T-24 cells; type: cell-based, human; details: T-24 bladder cancer cells, 100 μg/ml sequence, 48 h, treated vs control cells
# Method: as §1, §2, §3, §6
# Fas [7] = test: Fas expression at the cell surface by flow cytometry, UMUC-3 cells; type: cell-based, human; details: UMUC-3 bladder cancer cells, 100 μg/ml sequence, 48 h, treated vs control cells
# Method: as §1, §2, §3
# (§7) UMUC-3 bladder cancer cells are a P-glycoprotein overexpressing human cell line.
# FasL [8] = test: FasL expression at the cell surface by flow cytometry, UMUC-3 cells; type: cell-based, human; details: UMUC-3 bladder cancer cells, 100 μg/ml sequence, 48 h, treated vs control cells
# Method: as §1, §2, §3, §7
# Fas [9] = test: Fas expression at the cell surface by flow cytometry, OVCAR-3 cells; type: cell-based, human; details: OVCAR-3 ovarian cancer cells, 100 μg/ml sequence, 48 h, treated vs control cells
# Method: as §1, §2, §3
# (§8) OVCAR-3 ovarian cancer cells are a p53 mutated, p21/waf-1/Cip deleted, metastatic human solid tumor model.
# FasL [10] = test: FasL expression at the cell surface by flow cytometry, OVCAR-3 cells; type: cell-based, human; details: OVCAR-3 ovarian cancer cells, 100 μg/ml sequence, 48 h, treated vs control cells
# Method: as §1, §2, §3, §8
# Fas [11] = test: Fas expression at the cell surface by flow cytometry, SK-OV-3 cells; type: cell-based, human; details: SK-OV-3 ovarian cancer cells, 100 μg/ml sequence, 48 h, treated vs control cells
# Method: as §1, §2, §3
# (§9) SK-OV-3 ovarian cancer cells are a p53 mutated, p21/waf-1/Cip deleted, p15^ink4B,p16^ink4 deleted metastatic human solid tumor model.
# FasL [12] = test: FasL expression at the cell surface by flow cytometry, SK-OV-3 cells; type: cell-based, human; details: SK-OV-3 ovarian cancer cells, 100 μg/ml sequence, 48 h, treated vs control cells
# Method: as §1, §2, §3, §9
# Fas [13] = test: Fas expression at the cell surface by flow cytometry, LNCaP cells; type: cell-based, human; details: LNCaP prostate cancer cells, 100 μg/ml sequence, 48 h, treated vs control cells
# Method: as §1, §2, §3
# (§10) LNCaP prostate cancer cells are a TGF-beta 1 receptor negative, […], metastatic human solid tumor model.
# FasL [14] = test: FasL expression at the cell surface by flow cytometry, LNCaP cells; type: cell-based, human; details: LNCaP prostate cancer cells, 100 μg/ml sequence, 48 h, treated vs control cells
# Method: as §1, §2, §3, §10
# Fas [15] = test: Fas expression at the cell surface by flow cytometry, MCF-7 cells; type: cell-based, human; details: MCF-7 breast cancer cells, 100 μg/ml sequence, 48 h, treated vs control cells
# Method: as §1, §2, §3
# (§11) MCF-7 human breast cancer cells are a caspase-3 negative, estrogen-dependent human solid tumor model.
# FasL [16] = test: FasL expression at the cell surface by flow cytometry, MCF-7 cells; type: cell-based, human; details: MCF-7 breast cancer cells, 100 μg/ml sequence, 48 h, treated vs control cells
# Method: as §1, §2, §3, §11
Sequence,% INCREASE Fas (Fas [1]) [%],% INCREASE FasL (FasL [2]) [%],% INCREASE Fas (Fas [3]) [%],% INCREASE FasL (FasL [4]) [%],% INCREASE Fas (Fas [5]) [%],% INCREASE FasL (FasL [6]) [%],% INCREASE Fas (Fas [7]) [%],% INCREASE FasL (FasL [8]) [%],% INCREASE Fas (Fas [9]) [%],% INCREASE FasL (FasL [10]) [%],% INCREASE Fas (Fas [11]) [%],% INCREASE FasL (FasL [12]) [%],% INCREASE Fas (Fas [13]) [%],% INCREASE FasL (FasL [14]) [%],% INCREASE Fas (Fas [15]) [%],% INCREASE FasL (FasL [16]) [%]
GGTTGG [SEQ ID NO:13],99,86,−3,−32,75,25,47,98,22,10,16,−3,23,−3,99,83
GTGTGT [SEQ ID NO:2],52,43,94,99,93,77,72,154,77,69,60,24,34,5,155,135
TCGTTC [SEQ ID NO:12],121,75,597,847,105,74,47,112,126,224,9,−3,111,171,56,98
TGGTTG [SEQ ID NO:9],362,952,1043,1322,180,397,143,300,221,270,63,53,184,241,255,481
TGTGTG [SEQ ID NO:1],52,93,126,260,84,213,72,112,64,70,49,37,29,40,122,121
TTGTTT [SEQ ID NO:6],126,140,338,441,116,152,57,132,65,98,41,24,40,73,143,159
TTTGTT [SEQ ID NO:3],258,497,1165,1528,279,549,108,231,193,341,108,103,199,344,361,528
